{"source": "ChEMBL document CHEMBL4513134", "about": "“CO-ADD screening of University of Queensland (Australia) compounds” (2021)"}
{"system": "Escherichia coli", "experiment": "Antibacterial activity against Escherichia coli ATCC 25922 (CO-ADD:GN_001); MIC in CAMBH media using NBS plates, by OD(600)", "settings": "Concentration 32.0 ug.mL-1"}
{"compound": "O=C(NCc1ccc(OC(F)(F)F)cc1)c1ncc([N+](=O)[O-])[nH]1", "inhibition": "Average; N=2"}
{"compound": "O=C(NC1CC1)c1ncc([N+](=O)[O-])[nH]1", "inhibition": "Average; N=2"}
{"compound": "CNC(=O)c1ncc([N+](=O)[O-])[nH]1", "inhibition": "Average; N=2"}
{"compound": "Nc1c[nH]c(C(=O)NCc2ccc(F)cc2)n1", "inhibition": "Average; N=2"}
{"compound": "[N-]=[N+]=NCCOc1nc(-c2ccccc2)cn2cc([N+](=O)[O-])nc12", "inhibition": "Average; N=2"}
{"compound": "NC(=O)c1nc([N+](=O)[O-])cn1Cc1ccc(F)cc1", "inhibition": "Average; N=2"}
{"compound": "CN(CCOC(=O)c1ncc([N+](=O)[O-])[nH]1)C(=O)c1ncc([N+](=O)[O-])[nH]1", "inhibition": "Average; N=2"}
{"compound": "O=C(c1ncc([N+](=O)[O-])[nH]1)N1CCOCC1", "inhibition": "Average; N=2"}
{"compound": "O=C(NC1CCCCC1)c1ncc([N+](=O)[O-])[nH]1", "inhibition": "Average; N=2"}
{"compound": "O=C(NCc1ccccn1)c1ncc([N+](=O)[O-])[nH]1", "inhibition": "Average; N=2"}
{"compound": "CN(C)C(=O)c1ncc([N+](=O)[O-])[nH]1", "inhibition": "Average; N=2"}
{"compound": "NC(=O)c1nc([N+](=O)[O-])cn1CCc1ccc(OC(F)(F)F)cc1", "inhibition": "Average; N=2"}
{"compound": "O=C(NCc1ccccc1)c1nc([N+](=O)[O-])c[nH]1", "inhibition": "Average; N=2"}
{"system": "Acinetobacter baumannii", "experiment": "Antibacterial activity against Acinetobacter baumannii ATCC 19606 (CO-ADD:GN_034); MIC in CAMBH media using NBS plates, by OD600", "settings": "Concentration 32.0 ug.mL-1"}
{"compound": "O=C(NCc1ccc(OC(F)(F)F)cc1)c1ncc([N+](=O)[O-])[nH]1", "inhibition": "Average; N=2"}
{"compound": "O=C(NC1CC1)c1ncc([N+](=O)[O-])[nH]1", "inhibition": "Average; N=2"}
{"compound": "CNC(=O)c1ncc([N+](=O)[O-])[nH]1", "inhibition": "Average; N=2"}
{"compound": "Nc1c[nH]c(C(=O)NCc2ccc(F)cc2)n1", "inhibition": "Average; N=2"}
{"compound": "[N-]=[N+]=NCCOc1nc(-c2ccccc2)cn2cc([N+](=O)[O-])nc12", "inhibition": "Average; N=2"}
{"compound": "NC(=O)c1nc([N+](=O)[O-])cn1Cc1ccc(F)cc1", "inhibition": "Average; N=2"}
{"compound": "CN(CCOC(=O)c1ncc([N+](=O)[O-])[nH]1)C(=O)c1ncc([N+](=O)[O-])[nH]1", "inhibition": "Average; N=2"}
{"compound": "O=C(c1ncc([N+](=O)[O-])[nH]1)N1CCOCC1", "inhibition": "Average; N=2"}
{"compound": "O=C(NC1CCCCC1)c1ncc([N+](=O)[O-])[nH]1", "inhibition": "Average; N=2"}
{"compound": "O=C(NCc1ccccn1)c1ncc([N+](=O)[O-])[nH]1", "inhibition": "Average; N=2"}
{"compound": "CN(C)C(=O)c1ncc([N+](=O)[O-])[nH]1", "inhibition": "Average; N=2"}
{"compound": "NC(=O)c1nc([N+](=O)[O-])cn1CCc1ccc(OC(F)(F)F)cc1", "inhibition": "Average; N=2"}
{"compound": "O=C(NCc1ccccc1)c1nc([N+](=O)[O-])c[nH]1", "inhibition": "Average; N=2"}
{"system": "Pseudomonas aeruginosa", "experiment": "not given", "settings": "ATCC 27853, Concentration 32.0 ug.mL-1"}
{"compound": "O=C(NCc1ccc(OC(F)(F)F)cc1)c1ncc([N+](=O)[O-])[nH]1", "inhibition": "Average; N=2"}
{"compound": "O=C(NC1CC1)c1ncc([N+](=O)[O-])[nH]1", "inhibition": "Average; N=2"}
{"compound": "CNC(=O)c1ncc([N+](=O)[O-])[nH]1", "inhibition": "Average; N=2"}
{"compound": "Nc1c[nH]c(C(=O)NCc2ccc(F)cc2)n1", "inhibition": "Average; N=2"}
{"compound": "[N-]=[N+]=NCCOc1nc(-c2ccccc2)cn2cc([N+](=O)[O-])nc12", "inhibition": "Average; N=2"}
{"compound": "NC(=O)c1nc([N+](=O)[O-])cn1Cc1ccc(F)cc1", "inhibition": "Average; N=2"}
{"compound": "CN(CCOC(=O)c1ncc([N+](=O)[O-])[nH]1)C(=O)c1ncc([N+](=O)[O-])[nH]1", "inhibition": "Average; N=2"}
{"compound": "O=C(c1ncc([N+](=O)[O-])[nH]1)N1CCOCC1", "inhibition": "Average; N=2"}
{"compound": "O=C(NC1CCCCC1)c1ncc([N+](=O)[O-])[nH]1", "inhibition": "Average; N=2"}
{"compound": "O=C(NCc1ccccn1)c1ncc([N+](=O)[O-])[nH]1", "inhibition": "Average; N=2"}
{"compound": "CN(C)C(=O)c1ncc([N+](=O)[O-])[nH]1", "inhibition": "Average; N=2"}
{"compound": "NC(=O)c1nc([N+](=O)[O-])cn1CCc1ccc(OC(F)(F)F)cc1", "inhibition": "Average; N=2"}
{"compound": "O=C(NCc1ccccc1)c1nc([N+](=O)[O-])c[nH]1", "inhibition": "Average; N=2"}
{"system": "Klebsiella pneumoniae", "experiment": "not given", "settings": "ATCC 700603, Concentration 32.0 ug.mL-1"}
{"compound": "O=C(NCc1ccc(OC(F)(F)F)cc1)c1ncc([N+](=O)[O-])[nH]1", "inhibition": "Average; N=2"}
{"compound": "O=C(NC1CC1)c1ncc([N+](=O)[O-])[nH]1", "inhibition": "Average; N=2"}
{"compound": "CNC(=O)c1ncc([N+](=O)[O-])[nH]1", "inhibition": "Average; N=2"}
{"compound": "Nc1c[nH]c(C(=O)NCc2ccc(F)cc2)n1", "inhibition": "Average; N=2"}
{"compound": "[N-]=[N+]=NCCOc1nc(-c2ccccc2)cn2cc([N+](=O)[O-])nc12", "inhibition": "Average; N=2"}
{"compound": "NC(=O)c1nc([N+](=O)[O-])cn1Cc1ccc(F)cc1", "inhibition": "Average; N=2"}
{"compound": "CN(CCOC(=O)c1ncc([N+](=O)[O-])[nH]1)C(=O)c1ncc([N+](=O)[O-])[nH]1", "inhibition": "Average; N=2"}
{"compound": "O=C(c1ncc([N+](=O)[O-])[nH]1)N1CCOCC1", "inhibition": "Average; N=2"}
{"compound": "O=C(NC1CCCCC1)c1ncc([N+](=O)[O-])[nH]1", "inhibition": "Average; N=2"}
{"compound": "O=C(NCc1ccccn1)c1ncc([N+](=O)[O-])[nH]1", "inhibition": "Average; N=2"}
{"compound": "CN(C)C(=O)c1ncc([N+](=O)[O-])[nH]1", "inhibition": "Average; N=2"}
{"compound": "NC(=O)c1nc([N+](=O)[O-])cn1CCc1ccc(OC(F)(F)F)cc1", "inhibition": "Average; N=2"}
{"compound": "O=C(NCc1ccccc1)c1nc([N+](=O)[O-])c[nH]1", "inhibition": "Average; N=2"}
{"system": "Staphylococcus aureus", "experiment": "Antibacterial activity against Staphylococcus aureus MRSA ATCC 43300 (CO-ADD:GP_020); MIC in CAMBH media, using NBS plates, by OD(600)", "settings": "Concentration 32.0 ug.mL-1"}
{"compound": "O=C(NCc1ccc(OC(F)(F)F)cc1)c1ncc([N+](=O)[O-])[nH]1", "inhibition": "Average; N=2"}
{"compound": "O=C(NC1CC1)c1ncc([N+](=O)[O-])[nH]1", "inhibition": "Average; N=2"}
{"compound": "CNC(=O)c1ncc([N+](=O)[O-])[nH]1", "inhibition": "Average; N=2"}
{"compound": "Nc1c[nH]c(C(=O)NCc2ccc(F)cc2)n1", "inhibition": "Average; N=2"}
{"compound": "[N-]=[N+]=NCCOc1nc(-c2ccccc2)cn2cc([N+](=O)[O-])nc12", "inhibition": "Average; N=2"}
{"compound": "NC(=O)c1nc([N+](=O)[O-])cn1Cc1ccc(F)cc1", "inhibition": "Average; N=2"}
{"compound": "CN(CCOC(=O)c1ncc([N+](=O)[O-])[nH]1)C(=O)c1ncc([N+](=O)[O-])[nH]1", "inhibition": "Average; N=2"}
{"compound": "O=C(c1ncc([N+](=O)[O-])[nH]1)N1CCOCC1", "inhibition": "Average; N=2"}
{"compound": "O=C(NC1CCCCC1)c1ncc([N+](=O)[O-])[nH]1", "inhibition": "Average; N=2"}
{"compound": "O=C(NCc1ccccn1)c1ncc([N+](=O)[O-])[nH]1", "inhibition": "Average; N=2"}
{"compound": "CN(C)C(=O)c1ncc([N+](=O)[O-])[nH]1", "inhibition": "Average; N=2"}
{"compound": "NC(=O)c1nc([N+](=O)[O-])cn1CCc1ccc(OC(F)(F)F)cc1", "inhibition": "Average; N=2"}
{"compound": "O=C(NCc1ccccc1)c1nc([N+](=O)[O-])c[nH]1", "inhibition": "Average; N=2"}
